Source: PubChem BioAssay (NCI)
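GI50: concentration for 50% inhibition of growth. TGI: total growth inhibition.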

Legend:
Assay in all cases: NCI tumour cell line growth inhibition, 384-well format
SF-268 CNS = test system: SF-268 CNS
HCC-2998 colon = test system: HCC-2998 colon
UACC-257 melanoma = test system: UACC-257 melanoma
MDA-MB-468 breast = test system: MDA-MB-468 breast
NCI-H23 lung = test system: NCI-H23 lung
MDA-MB-435 melanoma = test system: MDA-MB-435 melanoma
786-0 renal = test system: 786-0 renal
HL-60(TB) leukemia = test system: HL-60(TB) leukemia
TK-10 renal = test system: TK-10 renal
RPMI-8226 leukemia = test system: RPMI-8226 leukemia
BT-549 breast = test system: BT-549 breast
MDA-MB-231 breast = test system: MDA-MB-231 breast
A549 NSCLC = test system: A549 NSCLC
OVCAR-4 ovarian = test system: OVCAR-4 ovarian
HCT-15 colon = test system: HCT-15 colon
SNB-19 CNS = test system: SNB-19 CNS
NCI-H460 NSCLC = test system: NCI-H460 NSCLC
COLO 205 colon = test system: COLO 205 colon
HCT-116 colon = test system: HCT-116 colon
SNB-75 CNS = test system: SNB-75 CNS
M14 melanoma = test system: M14 melanoma
CCRF-CEM leukemia = test system: CCRF-CEM leukemia
SW-620 colon = test system: SW-620 colon
HT29 colon = test system: HT29 colon
SK-OV-3 ovarian = test system: SK-OV-3 ovarian
NCI-H522 lung = test system: NCI-H522 lung
ACHN renal = test system: ACHN renal
SK-MEL-5 melanoma = test system: SK-MEL-5 melanoma
HOP-92 NSCLC = test system: HOP-92 NSCLC
OVCAR-3 ovarian = test system: OVCAR-3 ovarian
EKVX NSCLC = test system: EKVX NSCLC
SF-295 CNS = test system: SF-295 CNS
UO-31 renal = test system: UO-31 renal
SN12C renal = test system: SN12C renal
LOX IMVI melanoma = test system: LOX IMVI melanoma
K-562 leukemia = test system: K-562 leukemia
NCI-H226 lung = test system: NCI-H226 lung
HOP-62 NSCLC = test system: HOP-62 NSCLC
OVCAR-8 ovarian = test system: OVCAR-8 ovarian
MOLT-4 leukemia = test system: MOLT-4 leukemia
SK-MEL-28 melanoma = test system: SK-MEL-28 melanoma
DU-145 prostate = test system: DU-145 prostate
UACC-62 melanoma = test system: UACC-62 melanoma
A498 renal = test system: A498 renal
MALME-3M melanoma = test system: MALME-3M melanoma
IGROV1 ovarian = test system: IGROV1 ovarian
KM12 colon = test system: KM12 colon
MCF7 breast = test system: MCF7 breast
NCI-H322M lung = test system: NCI-H322M lung
HS 578T breast = test system: HS 578T breast
SF-539 CNS = test system: SF-539 CNS
CAKI-1 renal = test system: CAKI-1 renal
T-47D breast = test system: T-47D breast
SR leukemia = test system: SR leukemia
PC-3 prostate = test system: PC-3 prostate
RXF 393 renal = test system: RXF 393 renal
U251 glioblastoma = test system: U251 glioblastoma
NCI/ADR-RES ovarian = test system: NCI/ADR-RES ovarian

CNCCN(C)Cc1cn[nH]c1-c1ccc(OC2CC(OCCC3CCOCC3)C2)cc1 (stereo unspecified)
GI50 (SF-268 CNS): 83.6 µM | TGI (SF-268 CNS): > 100 µM | GI50 (HCC-2998 colon): 50.7 µM | TGI (HCC-2998 colon): > 100 µM | GI50 (UACC-257 melanoma): 18.9 µM | TGI (UACC-257 melanoma): 43.3 µM | GI50 (MDA-MB-468 breast): 45.5 µM | TGI (MDA-MB-468 breast): > 100 µM | GI50 (NCI-H23 lung): 40 µM | TGI (NCI-H23 lung): > 100 µM | GI50 (MDA-MB-435 melanoma): > 100 µM | TGI (MDA-MB-435 melanoma): > 100 µM | GI50 ([…]-0 renal): 41.4 µM | TGI (786-0 renal): > 100 µM | GI50 (HL-60(TB) leukemia): 3.26 µM | TGI (HL-60(TB) leukemia): 12.4 µM | GI50 (TK-10 renal): 84.5 µM | TGI (TK-10 renal): > 100 µM | GI50 (RPMI-8226 leukemia): 24.5 µM | TGI (RPMI-8226 leukemia): > 100 µM | GI50 (BT-549 breast): 61.4 µM | TGI (BT-549 breast): > 100 µM | GI50 (MDA-MB-231 breast): 78.8 µM | TGI (MDA-MB-231 breast): > 100 µM | GI50 (A549 NSCLC): 79.6 µM | TGI (A549 NSCLC): > 100 µM | GI50 (OVCAR-4 ovarian): > 100 µM | TGI (OVCAR-4 ovarian): > 100 µM | GI50 (HCT-15 colon): > 100 µM | TGI (HCT-15 colon): > 100 µM | GI50 (SNB-19 CNS): > 100 µM | TGI (SNB-19 CNS): > 100 µM | GI50 (NCI-H460 NSCLC): 43.8 µM | TGI (NCI-H460 NSCLC): > 100 µM | GI50 (COLO 205 colon): 96.4 µM | TGI (COLO 205 colon): > 100 µM | GI50 (HCT-116 colon): 36.6 µM | TGI (HCT-116 colon): > 100 µM | GI50 (SNB-75 CNS): > 100 µM | TGI (SNB-75 CNS): > 100 µM | GI50 (M14 melanoma): > 100 µM | TGI (M14 melanoma): > 100 µM | GI50 (CCRF-CEM leukemia): 53.8 µM | TGI (CCRF-CEM leukemia): > 100 µM | GI50 (SW-620 colon): > 100 µM | TGI (SW-620 colon): > 100 µM | GI50 (HT29 colon): 24.6 µM | TGI (HT29 colon): 71.5 µM | GI50 (SK-OV-3 ovarian): > 100 µM | TGI (SK-OV-3 ovarian): > 100 µM | GI50 (NCI-H522 lung): > 100 µM | TGI (NCI-H522 lung): > 100 µM | GI50 (ACHN renal): 70.9 µM | TGI (ACHN renal): > 100 µM | GI50 (SK-MEL-5 melanoma): 16.1 µM | TGI (SK-MEL-5 melanoma): > 100 µM | GI50 (HOP-92 NSCLC): 42.5 µM | TGI (HOP-92 NSCLC): > 100 µM | GI50 (OVCAR-3 ovarian): 24 µM | TGI (OVCAR-3 ovarian): > 100 µM | GI50 (EKVX NSCLC): 60.6 µM | TGI (EKVX NSCLC): > 100 µM | GI50 (SF-295 CNS): 64.5 µM | TGI (SF-295 CNS): > 100 µM | GI50 (UO-31 renal): 80.2 µM | TGI (UO-31 renal): > 100 µM | GI50 (SN12C renal): 89.2 µM | TGI (SN12C renal): > 100 µM | GI50 (LOX IMVI melanoma): 32.6 µM | TGI (LOX IMVI melanoma): > 100 µM | GI50 (K-562 leukemia): 9.91 µM | TGI (K-562 leukemia): 25 µM | GI50 (NCI-H226 lung): > 100 µM | TGI (NCI-H226 lung): > 100 µM | GI50 (HOP-62 NSCLC): 58.3 µM | TGI (HOP-62 NSCLC): > 100 µM | GI50 (OVCAR-8 ovarian): > 100 µM | TGI (OVCAR-8 ovarian): > 100 µM | GI50 (MOLT-4 leukemia): 36.8 µM | TGI (MOLT-4 leukemia): > 100 µM | GI50 (SK-MEL-28 melanoma): 43 µM | TGI (SK-MEL-28 melanoma): > 100 µM | GI50 (DU-145 prostate): > 100 µM | TGI (DU-145 prostate): > 100 µM | GI50 (UACC-62 melanoma): 22 µM | TGI (UACC-62 melanoma): 66.6 µM | GI50 (A498 renal): 48.9 µM | TGI (A498 renal): > 100 µM | GI50 (MALME-3M melanoma): 13.6 µM | TGI (MALME-3M melanoma): 56.2 µM | GI50 (IGROV1 ovarian): 37.1 µM | TGI (IGROV1 ovarian): > 100 µM | GI50 (KM12 colon): > 100 µM | TGI (KM12 colon): > 100 µM | GI50 (MCF7 breast): 51.5 µM | TGI (MCF7 breast): > 100 µM | GI50 (NCI-H322M lung): > 100 µM | TGI (NCI-H322M lung): > 100 µM | GI50 (HS 578T breast): > 100 µM | TGI (HS 578T breast): > 100 µM | GI50 (SF-539 CNS): 94.4 µM | TGI (SF-539 CNS): > 100 µM | GI50 (CAKI-1 renal): 41.2 µM | TGI (CAKI-1 renal): > 100 µM | GI50 (T-47D breast): 71.2 µM | TGI (T-47D breast): > 100 µM | GI50 (SR leukemia): 7.14 µM | TGI (SR leukemia): 15 µM | GI50 (PC-3 prostate): 75.4 µM | TGI (PC-3 prostate): > 100 µM | GI50 (RXF 393 renal): 69.8 µM | TGI (RXF 393 renal): > 100 µM | GI50 (U251 glioblastoma): 51.8 µM | TGI (U251 glioblastoma): > 100 µM | GI50 (NCI/ADR-RES ovarian): > 100 µM | TGI (NCI/ADR-RES ovarian): > 100 µM
